Data set [1] addresses T1, Nuclear factor erythroid 2-related factor 2 (Homo sapiens) (UniProt Q16236).
T1 sequence (whole entry): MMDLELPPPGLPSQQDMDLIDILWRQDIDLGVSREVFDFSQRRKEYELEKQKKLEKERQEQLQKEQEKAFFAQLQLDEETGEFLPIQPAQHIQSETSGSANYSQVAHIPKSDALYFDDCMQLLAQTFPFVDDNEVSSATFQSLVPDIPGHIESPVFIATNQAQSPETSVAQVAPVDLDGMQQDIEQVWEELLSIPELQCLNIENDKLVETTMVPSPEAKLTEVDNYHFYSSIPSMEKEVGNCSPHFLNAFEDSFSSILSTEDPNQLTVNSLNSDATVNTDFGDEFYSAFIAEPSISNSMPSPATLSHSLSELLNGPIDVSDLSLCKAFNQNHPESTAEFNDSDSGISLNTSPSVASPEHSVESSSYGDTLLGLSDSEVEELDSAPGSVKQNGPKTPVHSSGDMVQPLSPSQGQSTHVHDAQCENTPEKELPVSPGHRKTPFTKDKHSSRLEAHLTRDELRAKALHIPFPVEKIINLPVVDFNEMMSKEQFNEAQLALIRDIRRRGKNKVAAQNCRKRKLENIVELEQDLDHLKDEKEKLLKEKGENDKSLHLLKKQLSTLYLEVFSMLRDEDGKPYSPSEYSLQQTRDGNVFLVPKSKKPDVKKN
In words: Induction of Nrf2/ARE activation in human Hela cells at 5 uM measured after 12 to 24 hrs by luciferase reporter gene assay relative to control. Type of data set: cell-based. To be noted: filed as activator, time 12-24 hrs.

Data set [2] has as its target T1, Nuclear factor erythroid 2-related factor 2 (Homo sapiens). In words: Induction of Nrf2/ARE activation in human Hela cells at 1 uM measured after 12 to 24 hrs by luciferase reporter gene assay relative to control. Type of data set: cell-based. To be noted: filed as activator, time 12-24 hrs.
For data set [3] the target is unchanged. In words: Induction of Nrf2/ARE activation in human Hela cells at 10 uM measured after 12 to 24 hrs by luciferase reporter gene assay relative to control. Type of data set: cell-based. To be noted: filed as activator, time 12-24 hrs.
Data set [4] deals with HUVEC. The data set is described as follows: Cytotoxicity against HUVEC assessed as effect on cell viability by SRB assay. Type of data set: toxicity, cell-based. To be noted: human.
Data set [5] has as its target T1, Nuclear factor erythroid 2-related factor 2 (Homo sapiens). In words: Induction of Nrf2/ARE activation in human Hela cells at 20 uM measured after 12 to 24 hrs by luciferase reporter gene assay relative to control. Type of data set: cell-based. The following applies: filed as activator, time 12-24 hrs.
For data set [6], the system named is HUVEC. The data set is described as follows: Cytoprotective activity against oxLDL-induced HUVEC cell damage assessed as increase in cell viability at 10 uM by SRB assay. Type of data set: functional, cell-based. To be noted: Homo sapiens.

Active and inactive are the calls of the source. The calls are words filed in the database; no cut-off is given here.

As to `O=C(/C=C/c1cccc(O)c1)N1CCN(Cc2noc(Cc3c[nH]c4ccccc34)n2)CC1`, the fold change (FC) in data set [1] came to 4.71; in data set [2], 2.3; in data set [3], 7.04; in data set [5], 7.21. Further, the Activity result with HUVEC [4] is recorded as “Non-Toxic”. The outcome in the data set with HUVEC [6] was Active.

As to `Brc1cccc(CN2CCN(Cc3noc(Cc4c[nH]c5ccccc45)n3)CC2)c1`, the fold change (FC) in data set [1] was 1.25; in data set [2] it was 1.12; in data set [3] it was 1.31; in data set [5], 1.54.

As to `COc1cccc(/C=C/C(=O)N2CCN(Cc3noc(Cc4c[nH]c5ccccc45)n3)CC2)c1`, the fold change (FC) in data set [1] stood at 1.89; in data set [2], 1.09; in data set [3], 2.97; in data set [5], 4.07.

As to `Cc1ccc(CN2CCN(Cc3noc(Cc4c[nH]c5ccccc45)n3)CC2)cc1`, the fold change (FC) was 1.78 in data set [1], 1.18 in data set [2], 2.11 in data set [3] and 2.45 in data set [5].

For the compound `c1ccc(CN2CCN(Cc3noc(Cc4c[nH]c5ccccc45)n3)CC2)cc1`, the fold change (FC) was 1.51 in data set [1], 1.09 in data set [2], 1.64 in data set [3] and 2.09 in data set [5].

Turning to `O=C(/C=C/c1cccc(Br)c1)N1CCN(Cc2noc(Cc3c[nH]c4ccccc34)n2)CC1`, the fold change (FC) in data set [1] was found to be 1.86; in data set [2], 1.31; in data set [3], 3.97; in data set [5], 2.56. In addition, the Activity entry in the data set with HUVEC [4] is listed as “Non-Toxic”. The result in the data set with HUVEC [6] was inactive.

On to `O=C(c1ccc(Br)cc1)N1CCN(Cc2noc(Cc3c[nH]c4ccccc34)n2)CC1`, for which the fold change (FC) in data set [1] is 1.21; in data set [2], 1.15; in data set [3] it was 1.28; in data set [5] it was 1.52.

For `COc1cc(/C=C/C(=O)N2CCN(Cc3noc(Cc4c[nH]c5ccccc45)n3)CC2)cc(OC)c1OC`, the fold change (FC) in data set [1] turned out to be 2.6; in data set [2], 1.24; in data set [3] it was 6.23; in data set [5], 6.86.

For the compound `O=C(c1ccccc1)N1CCN(Cc2noc(Cc3c[nH]c4ccccc34)n2)CC1`, the fold change (FC) in data set [1] stood at 1.31; in data set [2], 1.03; in data set [3] it was 1.44; in data set [5], 1.21.

Regarding `COc1cc(/C=C/C(=O)N2CCN(Cc3noc(Cc4c[nH]c5ccccc45)n3)CC2)ccc1O`, the fold change (FC) in data set [1] came out at 2.34; in data set [2], 1.29; in data set [3], 3.12; in data set [5], 3.56.

In the case of `COc1ccc(OC)c(/C=C/C(=O)N2CCN(Cc3noc(Cc4c[nH]c5ccccc45)n3)CC2)c1`, the fold change (FC) in data set [1] is 1.77; in data set [2], 1.12; in data set [3] it was 4.35; in data set [5], 3.66.

Turning to `O=C(/C=C/c1ccc(Cl)cc1)N1CCN(Cc2noc(Cc3c[nH]c4ccccc34)n2)CC1`, the fold change (FC) in data set [1] was 2.24; in data set [2] it was 1.21; in data set [3], 4.09; in data set [5], 6.12. Also, the Activity result with HUVEC [4] is “Non-Toxic”. The result in the data set on HUVEC [6] was Active.

As to `COc1ccccc1/C=C/C(=O)N1CCN(Cc2noc(Cc3c[nH]c4ccccc34)n2)CC1`, the fold change (FC) in data set [1] came out at 2.41; in data set [2], 1.23; in data set [3], 3.12; in data set [5], 4.25.

As for `O=C(/C=C/c1ccc(Cl)c(Cl)c1)N1CCN(Cc2noc(Cc3c[nH]c4ccccc34)n2)CC1`, the fold change (FC) amounted to 3.76 in data set [1], 1.34 in data set [2], 6.64 in data set [3] and 7.09 in data set [5]. The Activity result in the data set on HUVEC [4] is given as “Non-Toxic”. Further, the outcome in the data set on HUVEC [6] was Active.

As for `COc1ccc(/C=C/C(=O)N2CCN(Cc3noc(Cc4c[nH]c5ccccc45)n3)CC2)cc1`, the fold change (FC) was 1.65 in data set [1], 1.22 in data set [2], 1.96 in data set [3] and 2.07 in data set [5].

With `CC(C)(C)c1cc(O)ccc1O`, the fold change (FC) in data set [1] was 1.24; in data set [2], 1.17; in data set [3], 1.98; in data set [5], 2.78.

For `N#Cc1ccc(C(=O)N2CCN(Cc3noc(Cc4c[nH]c5ccccc45)n3)CC2)cc1`, the fold change (FC) turned out to be 1.25 in data set [1], 1.18 in data set [2], 1.37 in data set [3] and 1.4 in data set [5].

`COc1ccc(/C=C/C(=O)N2CCN(Cc3noc(Cc4c[nH]c5ccccc45)n3)CC2)cc1OC`: the fold change (FC) in data set [1] turned out to be 2.93; in data set [2], 1.34; in data set [3], 5.79; in data set [5] it was 7.22.

`CS(=O)(=O)c1ccc(CN2CCN(Cc3noc(Cc4c[nH]c5ccccc45)n3)CC2)cc1`: the fold change (FC) in data set [1] amounted to 2.04; in data set [2], 1.11; in data set [3], 3.15; in data set [5] it was 3.78.

With `COc1cc(/C=C/C(=O)N2CCN(Cc3noc(Cc4c[nH]c5ccccc45)n3)CC2)cc(OC)c1O`, the fold change (FC) in data set [1] was found to be 1.87; in data set [2] it was 1.23; in data set [3], 2.65; in data set [5], 3.08.

On to `O=C(/C=C/c1ccccc1O)N1CCN(Cc2noc(Cc3c[nH]c4ccccc34)n2)CC1`, for which the fold change (FC) in data set [1] stood at 3.01; in data set [2], 1.2; in data set [3], 6.31; in data set [5], 6.08.

On to `c1ccc2cc(CN3CCN(Cc4noc(Cc5c[nH]c6ccccc56)n4)CC3)ccc2c1`, for which the fold change (FC) in data set [1] was found to be 1.51; in data set [2], 1.09; in data set [3], 1.86; in data set [5], 2.04.

Take `COc1cccc(CN2CCN(Cc3noc(Cc4c[nH]c5ccccc45)n3)CC2)c1`: the fold change (FC) in data set [1] was 1.12; in data set [2], 1.15; in data set [3] it was 1.43; in data set [5], 1.47.

In the case of `Cc1ccc(C(=O)N2CCN(Cc3noc(Cc4c[nH]c5ccccc45)n3)CC2)cc1`, the fold change (FC) in data set [1] was 1.11; in data set [2], 1.04; in data set [3], 1.23; in data set [5] it was 1.36.

In the case of `O=C(/C=C/c1ccc2c(c1)OCO2)N1CCN(Cc2noc(Cc3c[nH]c4ccccc34)n2)CC1`, the fold change (FC) came to 2.07 in data set [1], 1.12 in data set [2], 4.97 in data set [3] and 3.24 in data set [5].

As for `O=C(/C=C/c1ccccc1)N1CCN(Cc2noc(Cc3c[nH]c4ccccc34)n2)CC1`, the fold change (FC) in data set [1] stood at 1.32; in data set [2], 1.05; in data set [3], 2.57; in data set [5] it was 2.89.

On to `O=C(/C=C/c1ccc(O)c(O)c1)N1CCN(Cc2noc(Cc3c[nH]c4ccccc34)n2)CC1`, for which the fold change (FC) in data set [1] was 2.96; in data set [2], 1.41; in data set [3], 6.92; in data set [5], 7.86.

As for `COc1cc(OC)c(OC)cc1/C=C/C(=O)N1CCN(Cc2noc(Cc3c[nH]c4ccccc34)n2)CC1`, the fold change (FC) in data set [1] stood at 2.79; in data set [2], 1.32; in data set [3] it was 5.79; in data set [5], 5.46. Also, the Activity entry in the data set with HUVEC [4] is reported as “Non-Toxic”. Besides, in the data set on HUVEC [6], the result was inactive.

On to `O=C(/C=C/c1ccc(O)cc1)N1CCN(Cc2noc(Cc3c[nH]c4ccccc34)n2)CC1`, for which the fold change (FC) was found to be 3.44 in data set [1], 1.52 in data set [2], 6.25 in data set [3] and 5.41 in data set [5]. Further, the Activity result in the data set on HUVEC [4] is given as “Non-Toxic”. The result in the data set with HUVEC [6] was inactive.

Regarding `CS(=O)(=O)c1ccc(C(=O)N2CCN(Cc3noc(Cc4c[nH]c5ccccc45)n3)CC2)cc1`, the fold change (FC) amounted to 1.5 in data set [1], 1.45 in data set [2], 1.52 in data set [3] and 1.67 in data set [5].

In the case of `Brc1ccc(CN2CCN(Cc3noc(Cc4c[nH]c5ccccc45)n3)CC2)cc1`, the fold change (FC) in data set [1] amounted to 2.16; in data set [2] it was 1.45; in data set [3] it was 3.14; in data set [5], 3.56.

With `Fc1cccc(CN2CCN(Cc3noc(Cc4c[nH]c5ccccc45)n3)CC2)c1`, the fold change (FC) in data set [1] came out at 1.42; in data set [2], 1.36; in data set [3], 1.54; in data set [5], 1.86.

For the origin of these results see ChEMBL document CHEMBL5365471, “Discovery of marine phidianidine-based Nrf2 activators and their potential against oxLDL- and HG-induced injury in HUVECs” (Bioorg Med Chem Lett, 2023).
